Literature values as cited in patent US6685969B2, “Treatment for ectoparasites” (Schering-Plough HealthCare Products, Inc., priority 2001, dated 2004).

System: Head Lice
Conditions: comparison of published results

## CC1(C)C(C=C(Cl)Cl)C1C(=O)OCc1cccc(Oc2ccccc2)c1 (stereo not shown) [Permethrin]
  Evidence of efficacy among topical pesticidal treatments: sufficient evidence of efficacy
